Measurements taken from publication PMC7993833, “EDP-938, a novel nucleoprotein inhibitor of respiratory syncytial virus, demonstrates potent antiviral activities in vitro and in a non-human primate model” (PLoS Pathogens, 2021).

Key:
RSV-A Long [1] = experiment: CPE assay (ATPlite), RSV-A Long in HEp-2 cells; type: cell-based; details: human respiratory syncytial virus, 120 h, HEp-2, RSV-A Long MOI 0.1, 5 days
RSV-A Long [2] = experiment: RT-qPCR viral load assay, RSV-A Long in HEp-2 cells; type: cell-based; details: human respiratory syncytial virus, HEp-2, RT-qPCR
RSV-A M37 = experiment: CPE assay, RSV-A M37 in HEp-2 cells; type: cell-based; details: human respiratory syncytial virus
Protocol: (§1) HEp-2, Vero, and BHK were seeded at 8,000 cells per well (cpw) in growth medium (Dulbecco’s Modified Eagle Medium (DMEM) with 1% GlutaMAX, 1% Penicillin/Streptomycin (P/S), 1% Non-Essential Amino Acids (NEAA), 10% Fetal Bovine Serum (FBS)) or (Minimum Essential Medium (MEM) with 10% FBS, 1% NEAA, 1% P/S) or (Eagle’s Minimum Essential Medium with L-Glutamine, with 10% FBS, 1% P/S) respectively. A549 seeded at 3,000 cpw in F-12K Kaighn’s Modification nutrient mixture with 10% FBS, 1% NEAA, 1% P/S. Cells seeded at time of infection in 96-well plates, final well volume 100μL. Compounds suspended in DMSO, serially diluted and added to wells at 0.5% final DMSO concentration. Viral stocks stabilized with 25% sucrose, previously titered using plaque assay, were added at desired MOI. Sucrose added to cells-only control wells to match percent added with virus. Unless otherwise noted, RSV-A strains were tested at 0.1 MOI and incubated for 5 days in a 37°C, 5% CO2 humidified incubator, and RSV-B at 0.5 MOI for 6 days. Cytopathic effect (CPE) determined using ATPlite (Perkin Elmer) measured with Envision luminometer. For RT-qPCR, RNA was extracted from whole well using Ambion RNAqueous-96 Automated Kit, and RT-qPCR run using Applied Biosystems TaqMan RNA-to-CT 1-Step Kit. […] All EC50s were calculated using the XLFit four-parameter logistic model 200 in Microsoft Excel.

RSV-B VR-955 [3] = experiment: RT-qPCR assay, RSV-B VR-955 in A549 cells; type: cell-based; details: human respiratory syncytial virus
Protocol: as §1

RSV-A2 = experiment: CPE assay, RSV-A2 in Vero cells; type: cell-based; details: human respiratory syncytial virus
Protocol: as §1

RSV-A Long [4] = experiment: RT-qPCR assay, RSV-A Long in primary HBECs; type: cell-based; details: human respiratory syncytial virus, primary HBEC
RSV-B VR-955 [5] = experiment: RT-qPCR assay, RSV-B VR-955 in primary HBECs; type: cell-based; details: human respiratory syncytial virus, primary HBEC
A549 cells = experiment: Cytotoxicity (ATPlite) in A549 cells; type: cell-based, human; details: at up to 50 μM, 3 days
Protocol: (§2) HEp-2, A549, and CHO cells were seeded at 3,000 cpw in their respective growth medium. CHO growth medium used was RPMI medium 1640 with 10% FBS, 1% P/S, 1% GlutaMAX. HEK-293 cells seeded at 10,000 cpw in DMEM growth medium. Undifferentiated HBECs were seeded in collagen-coated 96-well plates at 7,500 cpw in appropriate growth medium. Compound added and incubated for 3 days (4 days for HBECs) as described above. Plates read with ATPlite and CC50 calculated as EC50s as described above. SI = CC50/EC50 within a cell line.

[6] = Cytotoxicity (ATPlite) in CHO cells; type: cell-based; details: Chinese hamster, read-out: half-maximal cytotoxic concentration (CC50)
Protocol: as §2

RSV-B clinical isolates = experiment: RSV Virospot reduction assay (ViroClinics), RSV-B isolates from the Netherlands; type: cell-based; details: human respiratory syncytial virus, 10 RSV-B strains from the Netherlands
Protocol: To further expand testing against clinical isolates, the compound was assayed against a panel of 10 RSV-A and 10 RSV-B strains mainly isolated from children of age 2–200 weeks in the Netherlands.
RSV clinical isolates were obtained from Baylor University and Medical College of Wisconsin. MOI of 0.1 used for all clinical isolates except RSV-A 629-9-2 (0.01) and RSV-B 629-24/2007 (0.0044) due to low titer. Virospot reduction assay was run by ViroClinics (Rotterdam, the Netherlands) against 20 additional RSV clinical isolates.

RSV A2 = experiment: RSV-infected African Green monkey model, viral load; type: in vivo, African Green monkeys (Chlorocebus)
Protocol: African Green monkeys (AGMs) are permissive for human RSV infection and support a relatively higher level of viral replication compared to cotton rats and BALB/c mice. It has been previously validated as a non-human primate model for assessing in vivo efficacy of potential RSV vaccines and antiviral drugs. To evaluate the activity of EDP-938 in the AGM model, 4 animals each were treated with 100 mg/kg BID with EDP-938, RSV-604, or vehicle control via oral gavage starting 24 hours prior to RSV challenge and continuing for an additional 5 days. Samples were collected through bronchoalveolar lavage (BAL) and nasopharyngeal (NP) swab at various time points to determine viral load. […] Viral load in the NP swab samples was also determined.
A study of EDP-938 and RSV-604 in the African Green monkey (AGM) animal model was performed by BIOQUAL, Inc (Rockville, Maryland). Methods were similar to those run in a study by Ispas et al.. Six (6) male and 6 female AGMs (Chlorocebus) of 4–5 kg were purchased from PrimGen (Hines, Illinois). Each animal was challenged with 2 x 10^5 PFU of RSV A2 viral inoculum (Virapur, San Diego, CA). Four animals (2 per sex) in each group were treated with EDP-938, RSV-604, or vehicle control (0.5% w/v methylcellulose). The animals were dosed via oral gavage twice daily (every 12 hours), starting 24 hours prior to RSV challenge, and then continuing for an additional 5 days (6 total days of dose administration). Bronchoalveolar lavage (BAL) samples and nasopharyngeal (NP) swabs were collected for viral load determination.

[7] = test system: GS-5806- and AZ-27-resistant RSV; experiment: Activity against GS-5806- and AZ-27-selected resistant viruses; type: cell-based, respiratory syncytial virus; details: GS-5806- and AZ-27-resistant viruses

`O=C1Nc2ccccc2C(c2ccccc2)=N[C@@H]1Nc1nnc(-c2ncc(C(F)(F)F)cc2N2CCOCC2)o1` [EDP-938] showed an EC90 (RSV-A Long [1]; CPE) of 60 ± 18 nM, an EC50 (RSV-A Long [1]; CPE (ATPlite), read-out: EC50) of 52 ± 12 nM and an EC50 (RSV-A Long [2]; 120 h, RSV-A Long MOI 0.1, 5 days, read-out: EC50) of 89 ± 16 nM. The EC90 (RSV-A Long [2]; RSV-A Long) was 91 ± 62 nM, the EC50 (RSV-A M37) was 28 ± 4 nM and the EC90 (RSV-A M37) was 34 ± 10 nM. For the same compound, the EC50 (RSV-B VR-955 [3]) was 83 ± 38 nM, the EC90 (RSV-B VR-955 [3]) was 170 ± 53 nM and the EC50 (RSV-A2) was 33 ± 7 nM. It also gave an EC90 (RSV-A2) of 44 ± 18 nM, an EC50 (RSV-A Long [4]; 144 h, RSV-A Long MOI 0.1, 6 days) of 21 ± 17 nM and an EC90 (RSV-A Long [4]; RSV-A Long) of 29 ± 23 nM. The EC50 (RSV-B VR-955 [5]; 168 h, RSV-B VR-955 MOI 0.1, 7 days) was 64 ± 30 nM, the EC90 (RSV-B VR-955 [5]; RSV-B VR-955) was 74 ± 33 nM and the cytotoxicity (A549 cells) was “no significant cytotoxicity”. For the same compound, the CC50 at 3 days [6] was ~27000 nM, the EC50 (RSV-B clinical isolates) was 51 nM and the “reduction in peak viral load” value (RSV A2; 100 mg/kg BID oral gavage) was ~ 4 log10. The “effect on RSV viral load vs vehicle control” value (RSV A2; 100 mg/kg BID oral gavage, BAL) was “completely suppressed viral replication”, the “viral load reduction in BAL” value (RSV A2; 100 mg/kg BID oral gavage, Day 5, to below limit of detection (100 copies/mL)) was 4 log10 and the “viral load reduction in NP swab” value (RSV A2; 100 mg/kg BID oral gavage, Day 7, to below limit of detection (100 copies/mL)) was 4 log10. For the same compound, the “viral rebound after cessation of treatment” value (RSV A2; BAL fluid, above the limit of detection) was “no viral rebound was observed” and the “cross resistance of GS-5806- and AZ-27-resistant strains” value [7] was “no signs of cross resistance”.
